Assay: log P by HPLC on reversed phase columns (EEC directive 79/831 Annex V.A8)
Type: physicochemical
Settings: HPLC/LC-MS at pH 2.7, 0.1% formic acid in water / acetonitrile, gradient 10% to 95%
[1] = Table 2, amines of formula (III-a)

Structure (SMILES) | logP^[a] (Table 1, formula (I)) | logP^[a] [1]
CC1(C)CC(C(F)F)c2c(NC(=O)c3cccnc3C(F)F)cccc21 (centres unmarked) [Example 94] | 3.15^[a] | –
Cc1cnc(C(F)F)c(C(=O)Nc2cccc3c2C(C(C)C)OC3(C)C)c1 (racemic) [Example 75] | 3.00^[a] | –
CC(C)(C)CC1CC(C)(C)c2cccc(NC(=O)c3cccnc3C(F)F)c21 (centres unmarked) [Example 95] | 4.54^[a] | –
CC1CC(C)(C)c2c(Cl)ccc(NC(=O)c3cccnc3C(F)F)c21 (centres unmarked) [Example 16] | 3.73^[a] | –
CC(C)(C)CC1CCc2cccc(N)c21.Cl (centres unmarked) [III-a-8] | – | 4.04^[a]
CC1CC(C)(C)c2ccc(F)c(N)c21 (centres unmarked) [III-a-10] | – | 3.71^[a]
Cc1cnc(C(F)F)c(C(=O)Nc2cccc3c2CC(C)(C)C3)c1 [Example 48] | 3.35^[a] | –
CON=C1CC(C)c2c(NC(=O)c3cc(C)cnc3C(F)F)cccc21 (centres unmarked) [Example 29] | 2.61^[a] | –
CCCCON=C1CC(C)c2c(NC(=O)c3cc(C)cnc3C(F)F)cccc21 (racemic) [Example 53] | 3.46^[a] | –
Cc1cnc(C(F)F)c(C(=O)Nc2cccc3c2C(C)CC32CC2)c1 (racemic) [Example 54] | 3.31^[a] | –
CC1CC(C)(C)c2ccc(F)c(NC(=O)c3cccnc3C(F)F)c21 (centres unmarked) [Example 100] | 3.26^[a] | –
CC1CC(=C(Cl)Cl)c2cccc(NC(=O)c3cccnc3C(F)F)c21 (centres unmarked) [Example 99] | 3.13^[a] | –
CC1CC(C(C)(C)C)c2cccc(NC(=O)c3cccnc3C(F)F)c21 (mixture of isomers) [Example 93] | 3.94^[a] | –
CC1CC(=CCl)c2cccc(NC(=O)c3cccnc3C(F)F)c21 (centres unmarked) [Example 98] | 3.71^[a] | –
CCC1(CC)OC(C)c2c(NC(=O)c3cc(C)cnc3C(F)F)cccc21 (centres unmarked) [Example 26] | 3.15^[a] | –

Now from value to compound:

logP^[a] (Table 1, formula (I)) | logP^[a] [1] | Structure (SMILES)
– | 3.42^[a] | Cl.Nc1cccc2c1C(=C(Cl)Cl)CC2 [III-a-3]
3.79^[a] | – | CC1CC(C)(C)c2cccc(NC(=O)c3c(C(F)F)ccnc3C(F)F)c21 (centres unmarked) [Example 28]
2.96^[a] | – | O=C(Nc1cccc2c1C(=C(Cl)Cl)CC2)c1cccnc1C(F)F [Example 97]
– | 3.60^[a] | CC1CC(=C(Cl)Cl)c2cccc(N)c21.Cl (centres unmarked) [III-a-4]
3.52^[a] | – | CCC1OC(CC)(CC)c2cccc(NC(=O)c3cc(C)cnc3C(F)F)c21 (racemic) [Example 72]
3.96^[a] | – | CC1c2c(cccc2NC(=O)c2ccc(Cl)nc2C(F)F)CC1(C)C (centres unmarked) [Example 87]
3.97^[a] | – | CC1(C)CC(C(Cl)Cl)c2c(NC(=O)c3cccnc3C(F)F)cccc21 (centres unmarked) [Example 96]
3.08^[a] | – | CC1(C)CCc2c(NC(=O)c3cccnc3C(F)F)cccc21 [Example 92]
– | 2.75^[a] | CC1(C)CC(C(F)F)c2c(N)cccc21 (centres unmarked) [III-a-9]
– | 4.98^[a] | CC(C)(C)CC1CC(C)(C)c2cccc(N)c21 (centres unmarked) [III-a-6]
– | 4.39^[a] | CC1(C)CC(C(Cl)Cl)c2c(N)cccc21 (centres unmarked) [III-a-7]
2.15^[a] | – | CON=C1CCc2c(NC(=O)c3cccnc3C(F)F)cccc21 [Example 5]
3.79^[a] | – | CCCC1CC(C)c2c(NC(=O)c3cccnc3C(F)F)cccc21 (centres unmarked) [Example 89]
3.59^[a] | – | Cc1cnc(C(F)F)c(C(=O)Nc2cccc3c2C(C)C(C)(C)C3)c1 (centres unmarked) [Example 86]
